Measured values published in patent US9771358B2, “Dihydropyrimidine compounds and their application in pharmaceuticals” (SUNSHINE LAKE PHARMA CO., LTD., priority 2014, dated 2017).

What follows are compounds tested on HBV (assay: In-vitro anti-HBV activity in stable HBV-producing cell line (HepG2.2.15), HBV DNA by qPCR). Details: Hepatitis B virus, 168 h; HepG2.2.15 cells, HBV DNA in culture fluid, day 7, top concentration 16.4 μM.
Type: cell-based
Description: HBV DNA contents in cell culture fluid were detected by the qPCR-based assay and 50% effective concentration (EC50) values of the compounds against HBV were calculated. Specific procedures are as follows:
HepG2.2.15 cells were seeded into each well of 96-well plates, 40,000 cells per well. Cells were treated with cell culture medium containing compounds with different concentrations for 24 hours after cell seeding. The final concentration of each compound was 16.4 μM in each well and each compound was diluted to desired concentration using 3-fold gradient dilution protocol, 9 diluted points in duplicate. The culture mediums containing the compounds were refreshed on day 4 post cell seeding. Culture media were collected from the HepG2.2.15 plates on day 7 post cell seeding followed by HBV DNA extraction.
HBV DNA extraction: The HBV DNA extraction was performed using QIAamp 96 DNA Blood Kit (QIAGEN 51161).
PCR for quantification: PCR mix was prepared according to PCR system. PCR mix was dispensed to 96-well optical reaction plates (special for quantification). The standard diluted proportionally was added. Then the sample was added; The plates were sealed with optical adhesive film; PCR system was performed according to programs.
Percentage of HBV inhibition of DNA replication by compound was calculated using the following equation: % Inh.=[1-HBV DNA quantity of sample/HBV DNA quantity of DMSO control]×100.
Calculating EC50 value of compounds to HBV replication: the EC50 values were calculated based on “four-parameter logistic equation” and using GraphPad Prism 5 analysis software.

SMILES	EC50
CCOC(=O)C1=C(CN2CCO[C@@H](CCC(=O)O)C2)NC(c2nccs2)=N[C@H]1c1ccc(F)cc1Br [Example 21, 3-((S)-4-(((R)-6-(2-Bromo-4-fluorophenyl)-5-(ethoxycarbonyl)-2-(thiazol-2-yl)-3,6-dihydropyrimidin-4-yl)methyl)morpholin-2-yl)propanoic acid]	0.0936 µM
COC(=O)C1=C(CN2CCO[C@@H](CCC(=O)O)C2)NC(c2nccs2)=N[C@H]1c1ccc(F)cc1Br [Example 22, 3-((S)-4-(((R)-6-(2-Bromo-4-fluorophenyl)-5-(methoxycarbonyl)-2-(thiazol-2-yl)-3,6-dihydropyrimidin-4-yl)methyl)morpholin-2-yl)propanoic acid]	0.089 µM
CCOC(=O)C1=C(CN2CCO[C@@H](CCC(=O)O)C2)NC(c2nccs2)=N[C@H]1c1ccc(F)cc1Cl [Example 23, 3-((S)-4-(((R)-6-(2-Chloro-4-fluorophenyl)-5-(ethoxycarbonyl)-2-(thiazol-2-yl)-3,6-dihydropyrimidin-4-yl)methyl)morpholin-2-yl)propanoic acid]	0.11 µM
COC(=O)C1=C(CN2CCO[C@@H](CCC(=O)O)C2)NC(c2nccs2)=N[C@H]1c1ccc(F)cc1Cl [Example 24, 3-((S)-4-(((R)-6-(2-Chloro-4-fluorophenyl)-5-(methoxycarbonyl)-2-(thiazol-2-yl)-3,6-dihydropyrimidin-4-yl)methyl)morpholin-2-yl)propanoic acid]	0.107 µM
CCOC(=O)C1=C(CN2CCO[C@@H](CCC(=O)O)C2)NC(c2nccs2)=N[C@H]1c1ccc(Cl)cc1Cl [Example 25, 3-((S)-4-(((R)-6-(2,4-Dichlorophenyl)-5-(ethoxycarbonyl)-2-(thiazol-2-yl)-3,6-dihydropyrimidin-4-yl)methyl)morpholin-2-yl)propanoic acid]	0.086 µM
COC(=O)C1=C(CN2CCO[C@@H](CCC(=O)O)C2)NC(c2nccs2)=N[C@H]1c1ccc(Cl)cc1Cl [Example 26, 3-((S)-4-(((R)-6-(2,4-Dichlorophenyl)-5-(methoxycarbonyl)-2-(thiazol-2-yl)-3,6-dihydropyrimidin-4-yl)methyl)morpholin-2-yl)propanoic acid]	0.082 µM
CCOC(=O)C1=C(CN2CCO[C@H](CCC(=O)O)C2)NC(c2nccs2)=N[C@@H]1c1ccc(F)cc1Br [Example 35, 3-((R)-4-(((S)-6-(2-Bromo-4-fluorophenyl)-5-(ethoxycarbonyl)-2-(thiazol-2-yl)-3,6-dihydropyrimidin-4-yl)methyl)morpholin-2-yl)propanoic acid]	> 12.2 µM
CCOC(=O)C1=C(CN2CCO[C@@H](CCC(=O)O)C2)NC(c2nccs2)=N[C@@H]1c1ccc(F)cc1Br [Example 36, 3-((S)-4-(((S)-6-(2-Bromo-4-fluorophenyl)-5-(ethoxycarbonyl)-2-(thiazol-2-yl)-3,6-dihydropyrimidin-4-yl)methyl)morpholin-2-yl)propanoic acid]	> 14.5 µM
CCOC(=O)C1=C(CN2CCO[C@H](CCC(=O)O)C2)NC(c2nccs2)=N[C@@H]1c1ccc(F)cc1Cl [Example 37, 3-((R)-4-(((S)-6-(2-Chloro-4-fluorophenyl)-5-(ethoxycarbonyl)-2-(thiazol-2-yl)-3,6-dihydropyrimidin-4-yl)methyl)morpholin-2-yl)propanoic acid]	> 16.4 µM
CCOC(=O)C1=C(CN2CCO[C@@H](CCC(=O)O)C2)NC(c2nccs2)=N[C@@H]1c1ccc(F)cc1Cl [Example 38, 3-((S)-4-(((S)-6-(2-Chloro-4-fluorophenyl)-5-(ethoxycarbonyl)-2-(thiazol-2-yl)-3,6-dihydropyrimidin-4-yl)methyl)morpholin-2-yl)propanoic acid]	> 16.4 µM
COC(=O)C1=C(CN2CCO[C@H](CCC(=O)O)C2)NC(c2nccs2)=N[C@@H]1c1ccc(F)cc1Cl [Example 39, 3-((R)-4-(((S)-6-(2-Chloro-4-fluorophenyl)-5-(methoxycarbonyl)-2-(thiazol-2-yl)-3,6-dihydropyrimidin-4-yl)methyl)morpholin-2-yl)propanoic acid]	> 15.2 µM
COC(=O)C1=C(CN2CCO[C@@H](CCC(=O)O)C2)NC(c2nccs2)=N[C@@H]1c1ccc(F)cc1Cl [Example 40, 3-((S)-4-(((S)-6-(2-Chloro-4-fluorophenyl)-5-(methoxycarbonyl)-2-(thiazol-2-yl)-3,6-dihydropyrimidin-4-yl)methyl)morpholin-2-yl)propanoic acid]	> 16.4 µM
COC(=O)C1=C(CN2CCO[C@H](CCC(=O)O)C2)NC(c2nccs2)=N[C@@H]1c1ccc(F)cc1Br [Example 41, 3-((R)-4-(((S)-6-(2-Bromo-4-fluorophenyl)-5-(methoxycarbonyl)-2-(thiazol-2-yl)-3,6-dihydropyrimidin-4-yl)methyl)morpholin-2-yl)propanoic acid]	> 12.8 µM
COC(=O)C1=C(CN2CCO[C@@H](CCC(=O)O)C2)NC(c2nccs2)=N[C@@H]1c1ccc(F)cc1Br [Example 42, 3-((S)-4-(((S)-6-(2-Bromo-4-fluorophenyl)-5-(methoxycarbonyl)-2-(thiazol-2-yl)-3,6-dihydropyrimidin-4-yl)methyl)morpholin-2-yl)propanoic acid]	> 15.3 µM
CCOC(=O)C1=C(CN2CCO[C@H](CCC(=O)O)C2)NC(c2nccs2)=N[C@@H]1c1ccc(Cl)cc1Cl [Example 43, 3-((R)-4-(((S)-6-(2,4-Dichlorophenyl)-5-(ethoxycarbonyl)-2-(thiazol-2-yl)-3,6-dihydropyrimidin-4-yl)methyl)morpholin-2-yl)propanoic acid]	> 11.7 µM
CCOC(=O)C1=C(CN2CCO[C@@H](CCC(=O)O)C2)NC(c2nccs2)=N[C@@H]1c1ccc(Cl)cc1Cl [Example 44, 3-((S)-4-(((S)-6-(2,4-Dichlorophenyl)-5-(ethoxycarbonyl)-2-(thiazol-2-yl)-3,6-dihydropyrimidin-4-yl)methyl)morpholin-2-yl)propanoic acid]	> 14.9 µM
COC(=O)C1=C(CN2CCO[C@H](CCC(=O)O)C2)NC(c2nccs2)=N[C@@H]1c1ccc(Cl)cc1Cl [Example 45, 3-((R)-4-(((S)-6-(2,4-dichlorophenyl)-5-(methoxycarbonyl)-2-(thiazol-2-yl)-3,6-dihydropyrimidin-4-yl)methyl)morpholin-2-yl)propanoic acid]	> 11.3 µM
COC(=O)C1=C(CN2CCO[C@@H](CCC(=O)O)C2)NC(c2nccs2)=N[C@@H]1c1ccc(Cl)cc1Cl [Example 46, 3-((S)-4-(((S)-6-(2,4-Dichlorophenyl)-5-(methoxycarbonyl)-2-(thiazol-2-yl)-3,6-dihydropyrimidin-4-yl)methyl)morpholin-2-yl)propanoic acid]	> 14.2 µM
CCOC(=O)C1=C(CN2CCOC[C@H]2CCC(=O)O)NC(c2nccs2)=N[C@@H]1c1ccc(F)cc1Br [Example 47, 3-((R)-4-(((S)-6-(2-Bromo-4-fluorophenyl)-5-(ethoxycarbonyl)-2-(thiazol-2-yl)-3,6-dihydropyrimidin-4-yl)methyl)morpholin-3-yl)propanoic acid]	> 16.4 µM
CCOC(=O)C1=C(CN2CCOC[C@@H]2CCC(=O)O)NC(c2nccs2)=N[C@@H]1c1ccc(F)cc1Br [Example 48, 3-((S)-4-(((S)-6-(2-Bromo-4-fluorophenyl)-5-(ethoxycarbonyl)-2-(thiazol-2-yl)-3,6-dihydropyrimidin-4-yl)methyl)morpholin-3-yl)propanoic acid]	> 10.3 µM
COC(=O)C1=C(CN2CCOC[C@H]2CCC(=O)O)NC(c2nccs2)=N[C@@H]1c1ccc(F)cc1Br [Example 49, 3-((R)-4-(((S)-6-(2-Bromo-4-fluorophenyl)-5-(methoxycarbonyl)-2-(thiazol-2-yl)-3,6-dihydropyrimidin-4-yl)methyl)morpholin-3-yl)propanoic acid]	> 16.4 µM
COC(=O)C1=C(CN2CCOC[C@@H]2CCC(=O)O)NC(c2nccs2)=N[C@@H]1c1ccc(F)cc1Br [Example 50, 3-((S)-4-(((S)-6-(2-Bromo-4-fluorophenyl)-5-(methoxycarbonyl)-2-(thiazol-2-yl)-3,6-dihydropyrimidin-4-yl)methyl)morpholin-3-yl)propanoic acid]	> 10.9 µM

Same assay, conditions: Hepatitis B virus, HepG2.2.15; isomers of compound of formular (II)

SMILES	EC50
CCOC(=O)C1=C(CN2CCO[C@@H](CCC(=O)O)C2)NC(c2nccs2)=N[C@H]1c1ccc(F)cc1Cl [Example 23, 3-((S)-4-(((R)-6-(2-Chloro-4-fluorophenyl)-5-(ethoxycarbonyl)-2-(thiazol-2-yl)-3,6-dihydropyrimidin-4-yl)methyl)morpholin-2-yl)propanoic acid]	0.11 µM
CCOC(=O)C1=C(CN2CCO[C@H](CCC(=O)O)C2)NC(c2nccs2)=N[C@@H]1c1ccc(F)cc1Cl [Example M3]	> 16.4 µM
CCOC(=O)C1=C(CN2CCO[C@@H](CCC(=O)O)C2)NC(c2nccs2)=N[C@@H]1c1ccc(F)cc1Cl [Example M4]	> 16.4 µM
